Results on three compounds are retold here after US7314939B2, “Compositions and methods for inhibiting TGF-β” (Millennium Pharmaceuticals, Inc., priority 2003, dated 2008).

One test deals with T1, ALK5 (Homo sapiens, UniProt P36897).
T1 construct: An expression construct containing full-length ALK5 C-terminally tagged with HA was transfected into COS7 cells; made in house; host or cells: COS7 cells (transfected; isolated by anti-HA immunoprecipitation)
T1 sequence (P36897 34-503): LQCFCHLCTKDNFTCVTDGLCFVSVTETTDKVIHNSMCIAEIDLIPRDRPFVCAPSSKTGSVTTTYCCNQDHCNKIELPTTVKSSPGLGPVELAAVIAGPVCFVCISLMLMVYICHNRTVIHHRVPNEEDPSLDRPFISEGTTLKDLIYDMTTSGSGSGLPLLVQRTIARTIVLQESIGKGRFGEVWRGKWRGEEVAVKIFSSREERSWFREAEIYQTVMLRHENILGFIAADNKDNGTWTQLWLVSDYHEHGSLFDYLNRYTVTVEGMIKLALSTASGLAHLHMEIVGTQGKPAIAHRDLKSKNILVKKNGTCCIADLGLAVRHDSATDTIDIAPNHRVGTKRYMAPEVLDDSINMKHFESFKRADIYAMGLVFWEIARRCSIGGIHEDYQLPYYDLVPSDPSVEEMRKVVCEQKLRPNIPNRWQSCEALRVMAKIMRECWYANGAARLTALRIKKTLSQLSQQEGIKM
As to the kind of experiment: TGF-β (ALK5) phosphorylation: GST-ALK5 autophosphorylation screen and in vitro kinase of HA-ALK5 (IC50). The class given is biochemical. The text has this: The autophosphorylation of GST-ALK5 was developed for primary screening of the compounds that inhibit TGF-β signaling by interacting with ALK5. HA-ALK5 assay is a secondary screening assay to confirm the inhibitory compounds that were selected from the primary screening, and also for the determination of IC50 for each compound.
Autophosphorylation Assay of GST-ALK5
The cytoplasmic domain of ALK5 was fused to glutathione S-transferase (GST) and the GST-ALK5 fusion protein was expressed in a baculovirus expression system. GST-ALK5 was isolated with glutathione Sepharose 4B beads (Pharmacia Biotech, Sweden) and stored at −80° C. until use.
For detection of GST-ALK5 autophosphorylation and screening of inhibitory compounds, an aliquot of GST-ALK5 in 1× kinase buffer including [^33P]-γ-ATP was added to 96-well plates in the presence or absence of compounds. The mixture was then incubated at room temperature for 30 min and transferred to each well of a Filterplate with vacuum. The Filterplate was then washed 3 times and radioactivity in each well was counted in a Packard TopCount.
In Vitro Kinase of HA-ALK5
An expression construct containing full-length ALK5 C-terminally tagged with HA was transfected into COS7 cells, and HA-ALK5 was isolated by immunoprecipitation with anti-HA antibodies. Aliquots of immunoprecipitated HA-ALK5 in 1× kinase buffer plus [^33P]-γ-ATP was added to 96-well plates in the presence or absence of different concentrations of testing compounds, and incubated at room temperature for 60 min. The reaction mixture was then transferred to a Filterplate. The plate was washed three times and radioactivity in each well counted. IC50 for each compound was determined using the Prism3 program.

Test [1] has as its system TGF-β stimulated normal human lung fibroblasts (NHLF). In words: Cell-based assays in TGF-β stimulated NHLF (P-Smad2, PAI-1, collagen, fibronectin). Conditions: Fibroblast, P-Smad2, PAI-1, collagen and fibronectin assays. As to the method: ELISA Assay for TGF-β Stimulated Smad2 Phosphorylation
Serum-starved normal human lung fibroblasts (NHLF) in 24-well plate were treated with or without different concentrations of testing compounds for 30 min. The cells were then stimulated with TGF-β for one hour. After fixing, permeabilizing, and blocking, the cells were incubated with phospho-Smad2 specific antibodies followed by HRP-conjugated secondary antibody. The extent of Smad2 phosphorylation was then detected using HRP substrate and read with an ELISA plate reader. IC50 for each testing compound was determined using the PRISM3 program.
ELISA Assay for TGF-β Stimulated PAI-1 Secretion
Serum-starved NHLF in 24-well plates were treated with or without different concentrations of testing compounds for 30 min. The cells were then stimulated with TGF-β and incubated in a 37° C. incubator for 24 hours. The media were collected and added to 96-well plates coated with anti-PAI-1 antibodies. The secreted PAI-1 was then detected with another PAI-1 specific antibody followed by HRP-conjugated secondary antibody. The secretion of PAI-1 was detected using HRP substrate and read with an ELISA plate reader. IC50 for each testing compound was determined using the PRISM3 program.
SIRCOL Collagen Assay for TGF-β Stimulated Cells
Serum-starved NHLF in 24-well plates were treated with or without different concentrations of testing compounds for 30 min. The cells were then stimulated with TGF-β and incubated for 24 hours. The media were collected and SIRCOL dye reagent was added. After spinning and washing, the pellets were resuspended in alkali reagent and read with an ELISA plate reader. IC50 for each testing compound was determined using the PRISM3 program.
Detection of TGF-β Stimulated Fibronectin Expression
Serum-starved NHLF in 24-well plates were treated with or without different concentrations of testing compounds for 30 min. The cells were then stimulated with TGF-β and incubated for 24 hours. […] The signal was then detected using an ELISA reader. IC50 for each testing compound was determined using the PRISM3 program. […]

Where only a bound is given, the exact number is not on record here.

Take `Fc1c(-c2cccc(Cl)c2)nc2ccccc2c1Nc1ccncc1` [Compound 7, [2-(3-Chloro-phenyl)-3-fluoro-quinolin-4-yl]-pyridin-4-yl-amine]: the IC50 (against ALK5; in test [1]) was under 10 µM throughout.

In the case of `Fc1c(-c2ccc(Cl)s2)nc2ccccc2c1Nc1ccncc1` [Compound 51, [2-(5-Chloro-thiophen-2-yl)-3-fluoro-quinolin-4-yl]-pyridin-4-yl-amine], the IC50 (against ALK5; in test [1]) was under 10 µM in each case.

On to `Cc1ccc(-c2nc3ccccc3c(Nc3ccncc3)c2F)o1` [Compound 55, [3-Fluoro-2-(5-methyl-furan-2-yl)-quinolin-4-yl]-pyridin-4-yl-amine], for which the IC50 (on ALK5; in test [1]) was under 10 µM throughout.

As a reminder, the IC50 is the concentration at which inhibition is half-maximal. The low end stands for greater potency, the high end for weaker potency.
